One experiment deals with HCT-116 cell line. The experiment can be described thus: Inhibition of cell growth, tetrazolium salt (MTT) assay. Format: cell-based. As to conditions: HCT-116 cells. The method, boiled down:
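MTT colorimetric viability: three-to-five-day compound exposure in 0.5% (v/v) DMSO at 37° C, MTT 0.2 mg/mL for the last 4 h, A540 compared with vehicle-treated cells.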

The next experiment concerns the target CDK2/Cyclin A (Homo sapiens, UniProt P24941). The experiment can be described thus: Inhibition of CDK2/Cyclin A Retinoblastoma Kinase Activity. The note with it: at 0.03 μM. Format: biochemical. The method, boiled down:
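CDK2 (10 or 19 nM), insect-cell expressed, gel-filtration purified with truncated cyclin A; Rb fragment substrate; 25 μM ATP; 10 mM HEPES pH 7.4, 10 mM MgCl2; 30° C, 60 or 75 min; EDTA stop; phosphocellulose/nitrocellulose capture, phosphorimager. % inhibition vs DMSO control, no-enzyme background subtracted.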

Experiment [1] addresses human CDK4 and genetically truncated (1-264) cyclin D3 (Homo sapiens, UniProt P11802). The experiment can be described thus: Inhibition of CDK4/Cyclin D Retinoblastoma Kinase Activity. Format: biochemical. The note with it: at 0.03 μM. The procedure, abridged: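 The enzyme complex (5 nM), expressed in co-infected insect cells, was incubated with recombinant Rb fragment, 25 μM radiolabelled ATP and 2% DMSO at 30 °C. Reactions were stopped with EDTA after 20 minutes, or 60 minutes for tight-binding inhibitors. Apparent Ki values came from competitive inhibition fits.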

Each structure is given as a SMILES string.

From patent US20050101595A1, “N-containing cycloalkyl-substituted amino-thiazole derivatives and pharmaceutical compositions for inhibiting cell proliferation and methods for their use” (PFIZER INC., priority 2003, published 2005) come the findings set out here.

human CDK4 and genetically truncated (1-264) cyclin D3, sequence (P11802 whole entry, the tested form may be a part): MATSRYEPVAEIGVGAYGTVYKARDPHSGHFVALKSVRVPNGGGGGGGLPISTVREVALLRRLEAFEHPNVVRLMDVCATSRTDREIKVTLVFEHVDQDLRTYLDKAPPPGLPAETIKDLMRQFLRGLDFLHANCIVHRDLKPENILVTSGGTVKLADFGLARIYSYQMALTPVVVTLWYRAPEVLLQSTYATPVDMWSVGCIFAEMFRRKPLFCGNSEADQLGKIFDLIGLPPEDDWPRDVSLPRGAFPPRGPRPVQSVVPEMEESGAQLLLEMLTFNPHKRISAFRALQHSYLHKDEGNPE
human CDK4 and genetically truncated (1-264) cyclin D3, sequence (P30281 1-264 partner): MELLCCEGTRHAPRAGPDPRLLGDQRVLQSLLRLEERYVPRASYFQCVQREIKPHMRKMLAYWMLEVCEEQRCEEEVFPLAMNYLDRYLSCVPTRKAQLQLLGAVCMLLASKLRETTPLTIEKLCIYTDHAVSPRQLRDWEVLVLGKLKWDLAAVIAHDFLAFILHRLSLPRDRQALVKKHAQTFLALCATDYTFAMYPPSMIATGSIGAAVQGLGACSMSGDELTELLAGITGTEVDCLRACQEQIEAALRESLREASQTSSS

Consider `Cc1ccc(C(=O)N2CCC(Nc3nc(N)c(C(=O)c4c(F)cccc4F)s3)CC2)c(C)c1` [Example R126], for which, in the experiment with HCT-116 cell line, the “HCT-116 % Inhibition at 0.1 μM” value is 0% and the “HCT-116 5 Inhibition at 0.25 μM” value is 33. Moreover, the “CDK2 % Inhibition at 0.03 μM” value on CDK2/Cyclin A turned out to be 43%. In addition, the “CDK4 % Inhibition at 0.03 μM” value in experiment [1] is on record as 57%.

As to `Cc1cc(C)c(C(=O)N2CCC(Nc3nc(N)c(C(=O)c4c(F)cccc4F)s3)CC2)c(C)c1` [Example R127], in the experiment with HCT-116 cell line, the “HCT-116 % Inhibition at 0.1 μM” value came to 0% and the “HCT-116 5 Inhibition at 0.25 μM” value is 36. For the same compound, at CDK2/Cyclin A, the “CDK2 % Inhibition at 0.03 μM” value amounted to 28%. The “CDK4 % Inhibition at 0.03 μM” value in experiment [1] is recorded as 20%.

With `Cc1ccc(C)c(C(=O)N2CCC(Nc3nc(N)c(C(=O)c4c(F)cccc4F)s3)CC2)c1` [Example R128], in the experiment with HCT-116 cell line, the “HCT-116 % Inhibition at 0.1 μM” value worked out at 0% and the “HCT-116 5 Inhibition at 0.25 μM” value is given as 56. Also, on CDK2/Cyclin A, the “CDK2 % Inhibition at 0.03 μM” value is reported as 14%. For the same compound, in experiment [1], the “CDK4 % Inhibition at 0.03 μM” value worked out at 7%.

`N#Cc1cccc(C(=O)N2CCC(Nc3nc(N)c(C(=O)c4c(F)cccc4F)s3)CC2)c1` [Example R129]: in the experiment on HCT-116 cell line, the “HCT-116 % Inhibition at 0.1 μM” value is given as 0% and the “HCT-116 5 Inhibition at 0.25 μM” value is recorded as 33. Moreover, the “CDK2 % Inhibition at 0.03 μM” value on CDK2/Cyclin A is 41%. In addition, the “CDK4 % Inhibition at 0.03 μM” value in experiment [1] is given as 62%.

Regarding `Nc1nc(NC2CCN(C(=O)c3cccc(F)c3)CC2)sc1C(=O)c1c(F)cccc1F` [Example R130], in the experiment on HCT-116 cell line, the “HCT-116 % Inhibition at 0.1 μM” value is 0% and the “HCT-116 5 Inhibition at 0.25 μM” value amounted to 20. The “CDK2 % Inhibition at 0.03 μM” value on CDK2/Cyclin A is 59%. Moreover, the “CDK4 % Inhibition at 0.03 μM” value in experiment [1] was found to be 77%.

For `Cc1ccc(C(=O)N2CCC(Nc3nc(N)c(C(=O)c4c(F)cccc4F)s3)CC2)cc1F` [Example R131], in the experiment with HCT-116 cell line, the “HCT-116 % Inhibition at 0.1 μM” value was found to be 1% and the “HCT-116 5 Inhibition at 0.25 μM” value is on record as 44. Further, the “CDK2 % Inhibition at 0.03 μM” value at CDK2/Cyclin A is given as 42%. Besides, the “CDK4 % Inhibition at 0.03 μM” value in experiment [1] came out at 58%.

Take `Nc1nc(NC2CCN(C(=O)c3cccc(Cl)c3)CC2)sc1C(=O)c1c(F)cccc1F` [Example R132]: in the experiment with HCT-116 cell line, the “HCT-116 % Inhibition at 0.1 μM” value is 15% and the “HCT-116 5 Inhibition at 0.25 μM” value was 60. Also, the “CDK2 % Inhibition at 0.03 μM” value on CDK2/Cyclin A was found to be 28%. Further, the “CDK4 % Inhibition at 0.03 μM” value in experiment [1] was 55%.

Turning to `Nc1nc(NC2CCN(C(=O)c3ccc(Cl)c(Cl)c3)CC2)sc1C(=O)c1c(F)cccc1F` [Example R133], in the experiment on HCT-116 cell line, the “HCT-116 % Inhibition at 0.1 μM” value was 5% and the “HCT-116 5 Inhibition at 0.25 μM” value is 56. The “CDK2 % Inhibition at 0.03 μM” value on CDK2/Cyclin A stood at 21%. In addition, in experiment [1], the “CDK4 % Inhibition at 0.03 μM” value came out at 52%.

Take `Nc1nc(NC2CCN(C(=O)c3cc(Cl)cc(Cl)c3)CC2)sc1C(=O)c1c(F)cccc1F` [Example R134]: in the experiment with HCT-116 cell line, the “HCT-116 % Inhibition at 0.1 μM” value is reported as 45% and the “HCT-116 5 Inhibition at 0.25 μM” value was 95. In addition, at CDK2/Cyclin A, the “CDK2 % Inhibition at 0.03 μM” value was 29%. Also, in experiment [1], the “CDK4 % Inhibition at 0.03 μM” value was found to be 51%.

Take `CN(C)c1cccc(C(=O)N2CCC(Nc3nc(N)c(C(=O)c4c(F)cccc4F)s3)CC2)c1` [Example R135]: in the experiment with HCT-116 cell line, the “HCT-116 % Inhibition at 0.1 μM” value is reported as 0% and the “HCT-116 5 Inhibition at 0.25 μM” value is listed as 38. The “CDK2 % Inhibition at 0.03 μM” value on CDK2/Cyclin A is reported as 27%. For the same compound, the “CDK4 % Inhibition at 0.03 μM” value in experiment [1] came out at 50%.

With `COc1cccc(C(=O)N2CCC(Nc3nc(N)c(C(=O)c4c(F)cccc4F)s3)CC2)c1` [Example R136], in the experiment on HCT-116 cell line, the “HCT-116 % Inhibition at 0.1 μM” value was found to be 0% and the “HCT-116 5 Inhibition at 0.25 μM” value came to 37. Also, the “CDK2 % Inhibition at 0.03 μM” value on CDK2/Cyclin A is 26%. Besides, the “CDK4 % Inhibition at 0.03 μM” value in experiment [1] worked out at 45%.

In the case of `COc1cc(OC)cc(C(=O)N2CCC(Nc3nc(N)c(C(=O)c4c(F)cccc4F)s3)CC2)c1` [Example R137], in the experiment with HCT-116 cell line, the “HCT-116 % Inhibition at 0.1 μM” value was 0% and the “HCT-116 5 Inhibition at 0.25 μM” value amounted to 38. Further, the “CDK2 % Inhibition at 0.03 μM” value on CDK2/Cyclin A came out at 55%. In addition, the “CDK4 % Inhibition at 0.03 μM” value in experiment [1] is reported as 73%.

Consider `Nc1nc(NC2CCN(C(=O)c3cccc(O)c3)CC2)sc1C(=O)c1c(F)cccc1F` [Example R138], for which, in the experiment with HCT-116 cell line, the “HCT-116 % Inhibition at 0.1 μM” value worked out at 0% and the “HCT-116 5 Inhibition at 0.25 μM” value turned out to be 40. For the same compound, the “CDK2 % Inhibition at 0.03 μM” value on CDK2/Cyclin A was 67%. In addition, the “CDK4 % Inhibition at 0.03 μM” value in experiment [1] was found to be 70%.

On to `Nc1nc(NC2CCN(C(=O)c3cccc(C(F)(F)F)c3)CC2)sc1C(=O)c1c(F)cccc1F` [Example R139], for which, in the experiment with HCT-116 cell line, the “HCT-116 % Inhibition at 0.1 μM” value was 20% and the “HCT-116 5 Inhibition at 0.25 μM” value amounted to 62. Further, at CDK2/Cyclin A, the “CDK2 % Inhibition at 0.03 μM” value was 50%. Moreover, in experiment [1], the “CDK4 % Inhibition at 0.03 μM” value was 75%.

Turning to `Cc1cccc(C(=O)N2CCC(Nc3nc(N)c(C(=O)c4c(F)cccc4F)s3)CC2)c1` [Example R140], in the experiment on HCT-116 cell line, the “HCT-116 % Inhibition at 0.1 μM” value was found to be 32% and the “HCT-116 5 Inhibition at 0.25 μM” value is given as 78. The “CDK2 % Inhibition at 0.03 μM” value at CDK2/Cyclin A is 38%. Moreover, in experiment [1], the “CDK4 % Inhibition at 0.03 μM” value turned out to be 69%.

On to `Cc1ccc(C(=O)N2CCC(Nc3nc(N)c(C(=O)c4c(F)cccc4F)s3)CC2)cc1C` [Example R141], for which, in the experiment with HCT-116 cell line, the “HCT-116 % Inhibition at 0.1 μM” value is listed as 33% and the “HCT-116 5 Inhibition at 0.25 μM” value is listed as 77. For the same compound, the “CDK2 % Inhibition at 0.03 μM” value at CDK2/Cyclin A was found to be 68%. Moreover, the “CDK4 % Inhibition at 0.03 μM” value in experiment [1] is reported as 82%.

On to `Cc1cc(C)cc(C(=O)N2CCC(Nc3nc(N)c(C(=O)c4c(F)cccc4F)s3)CC2)c1` [Example R142], for which, in the experiment on HCT-116 cell line, the “HCT-116 % Inhibition at 0.1 μM” value was determined as 86% and the “HCT-116 5 Inhibition at 0.25 μM” value worked out at 99. For the same compound, at CDK2/Cyclin A, the “CDK2 % Inhibition at 0.03 μM” value was 67%. Besides, the “CDK4 % Inhibition at 0.03 μM” value in experiment [1] worked out at 83%.

Regarding `Nc1nc(NC2CCN(C(=O)c3ccc(F)cc3)CC2)sc1C(=O)c1c(F)cccc1F` [Example R143], in the experiment with HCT-116 cell line, the “HCT-116 % Inhibition at 0.1 μM” value is on record as 0% and the “HCT-116 5 Inhibition at 0.25 μM” value was 40. At CDK2/Cyclin A, the “CDK2 % Inhibition at 0.03 μM” value was 30%. Moreover, the “CDK4 % Inhibition at 0.03 μM” value in experiment [1] is 59%.

Regarding `Nc1nc(NC2CCN(C(=O)c3ccc(Cl)cc3)CC2)sc1C(=O)c1c(F)cccc1F` [Example R144], in the experiment on HCT-116 cell line, the “HCT-116 % Inhibition at 0.1 μM” value amounted to 0% and the “HCT-116 5 Inhibition at 0.25 μM” value stood at 38. Also, the “CDK2 % Inhibition at 0.03 μM” value on CDK2/Cyclin A is listed as 20%. Also, in experiment [1], the “CDK4 % Inhibition at 0.03 μM” value is listed as 46%.

Consider `COc1cc(Cl)ccc1C(=O)N1CCC(Nc2nc(N)c(C(=O)c3c(F)cccc3F)s2)CC1` [Example R145], for which, in the experiment with HCT-116 cell line, the “HCT-116 % Inhibition at 0.1 μM” value turned out to be 0% and the “HCT-116 5 Inhibition at 0.25 μM” value is on record as 38. Further, the “CDK2 % Inhibition at 0.03 μM” value at CDK2/Cyclin A came to 45%. In experiment [1], the “CDK4 % Inhibition at 0.03 μM” value turned out to be 53%.

As for `CC(=O)Nc1ccc(C(=O)N2CCC(Nc3nc(N)c(C(=O)c4c(F)cccc4F)s3)CC2)cc1` [Example R146], in the experiment with HCT-116 cell line, the “HCT-116 % Inhibition at 0.1 μM” value is on record as 0% and the “HCT-116 5 Inhibition at 0.25 μM” value worked out at 10. For the same compound, the “CDK2 % Inhibition at 0.03 μM” value at CDK2/Cyclin A came to 74%. The “CDK4 % Inhibition at 0.03 μM” value in experiment [1] amounted to 83%.

Consider `CNc1ccc(C(=O)N2CCC(Nc3nc(N)c(C(=O)c4c(F)cccc4F)s3)CC2)cc1` [Example R147], for which, in the experiment with HCT-116 cell line, the “HCT-116 % Inhibition at 0.1 μM” value came to 0% and the “HCT-116 5 Inhibition at 0.25 μM” value worked out at 41. At CDK2/Cyclin A, the “CDK2 % Inhibition at 0.03 μM” value was found to be 63%. The “CDK4 % Inhibition at 0.03 μM” value in experiment [1] is 78%.

For `COc1ccc(C(=O)N2CCC(Nc3nc(N)c(C(=O)c4c(F)cccc4F)s3)CC2)cc1` [Example R148], in the experiment on HCT-116 cell line, the “HCT-116 % Inhibition at 0.1 μM” value is 0% and the “HCT-116 5 Inhibition at 0.25 μM” value was determined as 42. Besides, the “CDK2 % Inhibition at 0.03 μM” value on CDK2/Cyclin A was 20%. Also, the “CDK4 % Inhibition at 0.03 μM” value in experiment [1] is given as 49%.
